In patent US20190203253A1, “METHODS OF IDENTIFYING AND TREATING CANCER PATIENTS WITH AN EPHB6 DEFICIENCY” (University of Saskatchewan, priority 2016, published 2019):

Legend:
MDA-B6 and MDA-pc3 cells = assay: Cell survival (resazurin) with MET inhibitor, MDA-MB-231-derived cells; format: cell-based, human; conditions: increasing concentrations, 24 hours, vs MDA-B6 (FIG. 10A)
Method: (§1) FIG. 10. Analysis of EPHB6-MET SL interaction. A and B, MDA-B6 and MDA-pc3 (A) or BT2O-NS and BT20-shB6 (B) cells were treated for 24 hours with the indicated concentrations of MET inhibitor, ARQ197, or with matching concentrations of DMSO, as a control. Treated cells were stained with Resazurin for 2 h at 37° C. and cell survival was measured using a microplate reader. Data represent the analysis of triplicates and are shown as a percentage relative to matching DMSO controls. (*) Statistical analyses: Student's t test, P<0.05 for indicated points. All analyses represent one of at least three independent experiments.
(§2) As mentioned above, a number of potential candidates that predominantly function in signal transduction (FIG. 2G), including DDR2, SRC, ROCK2 and MET (Table 1), were identified. Further testing with a MET inhibitor, ARQ197, was conducted to evaluate its SL properties. MDA-B6 and MDA-pc3 cells, as well as BT20-NS and BT20-shB6 cells, obtained using a method similar as described above in Example 1, were treated with increasing concentrations of ARQ197.

[1] = tested on: BT20-NS and BT20-shB6 cells; assay: Cell survival (resazurin) with MET inhibitor, BT-20-derived cells; format: cell-based, human; conditions: increasing concentrations, 24 hours, vs BT20-NS (FIG. 10B)
Method: as §1, §2

[2] = tested on: co-cultured MDA-pc3 and MDA-B6 cells; assay: Co-cultured colour-coded cells with MET inhibitor (flow cytometry); format: cell-based, human; conditions: 0.3 μM, 24, 32 and 48 hours, 1:1 co-culture (FIG. 11)
Method: FIG. 11. MET inhibition preferentially suppresses EPHB6-deficient cells. Hygro-selected combinations of MDA-B6-GFP and MDA-pc3-RFP (A and B) or MDA-B6-RFP and MDA-pc3-GFP (C and D) cells were seeded in 1:1 ratio and treated with 0.3 μM concentration of Met receptor inhibitor, ARQ197, or with a matching volume of DMSO, as a solvent control for 24, 32, and 48 hours. Treated cells were analyzed by flow cytometry. Bar graphs are based on the analyses of triplicates and represent a suppression of ARQ197-treated cell populations as a percentage relative to matching DMSO controls. (*) Statistical analyses: Student's t test, P<0.05 for indicated points. All analyses represent one of at least three independent experiments. The skilled person in the art will understand that the drawings, described herein, are for illustration purposes only. The drawings are not intended to limit the scope of the applicants' teachings in any way.
as §2

[3] = tested on: MDA-pc3 and MDA-B6 cells (MDA-MB-231); assay: Drug sensitivity assay (resazurin), SRC inhibitors, MDA-MB-231-derived cells; format: cell-based, human; conditions: MDA-pc3 vs MDA-B6, increasing concentrations, 72 h, resazurin (FIG. 4A, 4B)
Method: FIG. 4. […] C. […] All experiments were performed at least three times.

[4] = tested on: BT-20 cells (EPHB6-targeting shRNA vs non-silencing shRNA); assay: Drug sensitivity assay (resazurin), SRC inhibitors, BT-20 cells with silenced EPHB6; format: cell-based, human; conditions: BT-20 with EPHB6-targeting shRNA vs non-silencing shRNA, 96 h (FIGS. 6A-6E)
Method: FIG. 6. SL relation between EPHB6 and SRC in BT-20 TNBC cells. A. Triple negative breast cancer cells, BT-20, were transduced with EPHB6-targeting shRNA (BT20-66-shRNA), or non-silencing shRNA (BT2O-NS). EPHB6 expression was analyzed by Western blotting with anti-EPHB6. Western blotting with anti-tubulin was used as a loading control. B. BT20-66-shRNA and BT2O-NS cells were cultured in 96-well plates with indicated concentrations of SU6656 or matching volumes of DMSO for 96 h. Cells were stained with resazurin and fluorescence was measured using a SpectraMax M5 plate reader to determine cell suppression. Five wells were analyzed per condition. […] C. […] Cells were stained with resazurin and fluorescence was measured using a SpectraMax M5 plate reader to determine cell suppression. Five wells were analyzed per condition. […] PI-stained cells were counted in at least 10 randomly captured frames. […] Stained cells were analyzed by flow cytometry and the FlowJo software. […]
MDA-MB-231 and BT-20 cell monolayers were incubated in 96-well plates for 72 h and 96 h, respectively, with indicated concentrations of KX2-391 or SU6656, or matching volumes of DMSO as a solvent control. Treated cells were stained using resazurin by following the manufacturer's instructions and fluorescence was measured using a SpectraMax M5 microplate reader.

SRC = SRC (Homo sapiens, UniProt P12931); assay: SRC inhibition in cells (anti-SRC immunoprecipitation, anti-phospho-SRC Western blot); format: cell-based; conditions: MDA-B6 cells, 20 μM, 40 minutes, 10% FBS (FIG. 9B)
Chain of SRC (P12931 whole entry): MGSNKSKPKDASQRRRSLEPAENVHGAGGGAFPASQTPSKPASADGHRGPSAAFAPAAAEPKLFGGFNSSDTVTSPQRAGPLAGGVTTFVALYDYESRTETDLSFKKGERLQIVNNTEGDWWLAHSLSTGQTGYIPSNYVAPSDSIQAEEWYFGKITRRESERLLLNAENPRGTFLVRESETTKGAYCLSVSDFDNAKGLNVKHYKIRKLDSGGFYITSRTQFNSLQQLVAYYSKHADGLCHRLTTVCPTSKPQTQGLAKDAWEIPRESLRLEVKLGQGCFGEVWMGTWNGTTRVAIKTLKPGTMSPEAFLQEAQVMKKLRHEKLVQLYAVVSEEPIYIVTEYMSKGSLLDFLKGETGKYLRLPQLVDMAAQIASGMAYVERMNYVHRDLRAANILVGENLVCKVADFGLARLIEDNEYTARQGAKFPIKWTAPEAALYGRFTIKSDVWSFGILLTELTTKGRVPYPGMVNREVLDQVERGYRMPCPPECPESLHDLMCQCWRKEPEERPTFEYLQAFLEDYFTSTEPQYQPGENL

SMILES | cell survival of EPHB6-deficient MDA-pc3 cells (MDA-B6 and MDA-pc3 cells) | cell survival of BT20-shB6 cells [1] | suppression of cell populations in co-culture [2] | cell suppression relative to DMSO control, EPHB6-deficient vs EPHB6-expressing cells [3] | cell suppression after silencing of EPHB6 expression [4] | SRC inhibition (phospho-SRC) (SRC)
O=C1NC(=O)[C@@H](c2cn3c4c(cccc24)CCC3)[C@@H]1c1c[nH]c2ccccc12 [ARQ197] | decreased cell survival compared to MDA-B6 cells | decreased cell survival compared to BT-20 cells transduced with non-silencing shRNA | preferentially suppressed EPPBH6-deficient MDA-B6 cells |  |  | 
CN(C)S(=O)(=O)c1ccc2c(c1)/C(=C/c1cc3c([nH]1)CCCC3)C(=O)N2 [SU6656] |  |  |  | preferentially suppressed EPHB6-deficient MDA-pc3 cells | strongly increased their suppression | efficiently inhibited
